{"source": "patent US8420654B2", "about": "(Eli Lilly and Company, priority 2008, dated 2013)", "key": {"CYP2D6": {"target": "T1, CYP2D6 (Homo sapiens, UniProt P10635)", "T1 construct": "pooled, mixed gender, human liver microsomes; from tissue; host or cells: pooled, mixed gender human liver microsomes", "T1 sequence (P10635 whole entry)": "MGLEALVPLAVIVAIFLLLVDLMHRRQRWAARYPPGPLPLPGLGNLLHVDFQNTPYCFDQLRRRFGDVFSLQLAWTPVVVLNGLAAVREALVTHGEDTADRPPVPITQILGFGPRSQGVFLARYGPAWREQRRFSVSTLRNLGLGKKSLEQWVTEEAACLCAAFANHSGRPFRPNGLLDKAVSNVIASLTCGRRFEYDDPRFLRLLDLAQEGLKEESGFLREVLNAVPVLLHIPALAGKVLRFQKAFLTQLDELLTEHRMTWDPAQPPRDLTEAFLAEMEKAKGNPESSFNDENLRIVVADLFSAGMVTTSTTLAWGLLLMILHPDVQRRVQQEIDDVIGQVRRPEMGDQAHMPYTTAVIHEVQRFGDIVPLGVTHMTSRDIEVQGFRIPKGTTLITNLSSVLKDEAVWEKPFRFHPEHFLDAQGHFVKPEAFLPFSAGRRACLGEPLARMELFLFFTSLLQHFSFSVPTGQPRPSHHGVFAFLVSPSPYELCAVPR", "test": "Human CYP fingerprinting, quinidine inhibitor", "assay_type": "in vitro ADME", "conditions": "4 μM, human liver microsomes, 30 min, quinidine 10 μM", "protocol": "(§1) CYP fingerprinting is well established technique and is used as an indication of potential risk of drug-drug interactions in the pharmaceutical sciences. Compounds of the present invention may be assayed by well known methods, essentially as follows: Compounds are incubated at 37° C. at a final concentration of 4 μM with pooled, mixed gender, human liver microsomes and 1 mM NADPH ([…]) (final conc.) for 0 and 30 min. without any CYP inhibitor and with each CYP inhibitor in separate incubations for 30 min. Each inhibitor is specific for an individual cytochrome P450. The specific inhibitors used for CYPs 2C9, 2D6 and 3A were sulfaphenazole, quinidine and ketoconazole, respectively. Ketoconazole (CYP3A) is made up at 25 mM in DMSO and then diluted in buffer to a final concetration of 10 μM. Quinidine (CYP2D6) is made up at 5 mM in 50/50 acetonitrile/water and then diluted in buffer to a final concetration of 10 μM. Sulfaphenazole (CYP2C9) is made up at 100 mM in DMSO and then diluted in buffer to a final concetration of 5 μM. Samples are analyzed by LC-MS in positive or negative electrospray mode using a Waters Acquity Ultra Performance LC coupled to a MicroMass Q-T of-2 mass spectrometer.\n(§2) Data are analyzed using MetaboLynx™ version 4.1. With inhibitor present, a reduction in metabolite peak area of less than 30% (relative to the uninhibited control incubation) receives a designation of low risk of Drug Drug Interaction (DDI), a reduction in peak area between 30% and 70% receives a moderate risk of DDI and a reduction of more than 70% receives a high risk of DDI."}, "Rat oral bioavailability": {"test": "Rat oral bioavailability", "assay_type": "in vivo", "conditions": "Sprague-Dawley, plasma, fasted male SD rats, IV 0.25 mg/kg, PO 1 mg/kg, based on AUC0-24hr, mean s.d., n=3", "protocol": "Methods for accessing bioavailability are well appreciated in the art. One such reference is Medicinal Research Reviews Vol 21 No. 5 382-396 (2001). Bioavailability of compounds may be estimated essentially as follows.\nCohorts of three or four 250-450 gram male Sprague-Dawley rats or approximately 10 kg Beagle dogs (female or male) are used. […] Dogs are administered i.v. by cannulated cephalic vein and blood collections are by jugular vein. Animals are first dosed at 0.25 mg/kg i.v. and blood samples (0.2 mL) are then collected using EDTA as an anticoagulant at 0.0830, 0.25, 0.50, 1, 2, 4, 8, 12, 24, 48, 72, 96, and 120 hours. Next after at least two days and after 18-24 hours fasting, the animals are dosed at 1.0 mg/kg by oral gavage. During the course of a study the total of blood (ml) collected is not to exceed 1% of total body weight in grams. Should larger blood volumes be required, the sampled blood volume is replace with heparinized whole blood from a donor animal. When using a cross-over study design, rats receive a volume of heparinized whole blood following the final sample of each study day approximately equal to that removed during study.\nCompound plasma concentrations are measured by LC/MS/MS assays. Data are then analyzed using standard non-compartmental pharmacokinetic analysis. […]"}, "CYP3A": {"tested_on": "CYP3A", "test": "Human CYP fingerprinting, ketoconazole inhibitor", "assay_type": "in vitro ADME", "conditions": "4 μM, human liver microsomes, 30 min, ketoconazole 10 μM", "protocol": "as §1, §2"}}}
{"smiles": "CC(C)(N[C@@H]1C[C@H](c2cccc(OC(F)(F)F)c2)N(c2ccc(C(F)(F)F)cc2)C1=O)c1ccnc(C(F)(F)F)n1.Cc1ccc(S(=O)(=O)O)cc1", "note": "[Example 5, (3R,5R)-3-[1-Methyl-1-(2-trifluoromethyl-pyrimidin-4-yl)-ethylamino]-5-(3-trifluoromethoxy-phenyl)-1-(4-trifluoromethyl-phenyl)-pyrrolidin-2-one tosylate]", "values": [{"measurement": "Risk of Drug Drug Interaction (DDI) CYP2D6", "setting": "CYP2D6", "result": "low (a reduction in metabolite peak area of less than 30% (relative to the uninhibited control incubation) receives a designation of low risk of Drug Drug Interaction (DDI))"}, {"measurement": "bioavailability", "setting": "Rat oral bioavailability", "result": 51, "unit": "%"}, {"measurement": "Risk of Drug Drug Interaction (DDI) CYP3A", "setting": "CYP3A", "result": "low (a reduction in metabolite peak area of less than 30% (relative to the uninhibited control incubation) receives a designation of low risk of Drug Drug Interaction (DDI))"}]}
